We go through 20 molecules from ChEMBL document CHEMBL1153512, “Anti-HBV and cytotoxic activities of pyranocoumarin derivatives” (Bioorg Med Chem, 2009).

Converted amounts (≈) assume the structure as drawn. A value given as a limit tells only on which side of the number the result lay.

The subject of assay [1] is Hepatitis B virus. The experiment in a line: Antiviral activity against Hepatitis B virus infected in human […] cells assessed as suppression of viral surface antigen production upto 15 uM after 48 hrs by enzyme immunoassay. Type of assay: functional, organism-based.
Assay [2] deals with Hepatitis B virus. As to the kind of experiment: Antiviral activity against Hepatitis B virus infected in human […] cells assessed as suppression of viral surface antigen production after 48 hrs by enzyme immunoassay. Type of assay: functional, organism-based.
Assay [3] in a line: Cytotoxicity against human KBVIN cells after 3 days by sulforhodamine B assay. Type of assay: functional, cell-based. The conditions noted are these: 72 h. Background: In SRB staining, fixed cells bind dye roughly in proportion to their protein.
Another assay has as its system MCF7. The experiment in a line: Cytotoxicity against human MCF7 cells after 3 days by sulforhodamine B assay. Type of assay: functional, cell-based. The conditions noted are these: MCF7, 72 h.
The test system of a further assay is A549. As to the kind of experiment: Cytotoxicity against human A549 cells after 3 days by sulforhodamine B assay. Type of assay: functional, cell-based. The settings on record: A549, 72 h.
The next assay relates to KB. The experiment in a line: Cytotoxicity against human KB cells after 3 days by sulforhodamine B assay. Type of assay: functional, cell-based. The settings on record: 72 h.

For orientation: EC50 means the concentration giving half of the maximal effect. As to `COc1c2c(cc3oc(=O)ccc13)OC(C)(C)CC2`, the EC50 entry with Hepatitis B virus [1] is recorded as “Not Active”.

Turning to `C=CC(C)(C)c1c2c(c(OC)c3ccc(=O)oc13)C1OC1C(C)(C)O2` (stereo not given), the EC50 in the assay with Hepatitis B virus [2] came out at 5.5 µM.

As to `CCC(C)(C)c1c2c(c(O)c3ccc(=O)oc13)CCC(C)(C)O2`, the concentration for a half-maximal effect (EC50) in assay [3] came to 9.11 µg/mL (≈ 28.8 µM); in the assay on MCF7, 16.3 µg/mL (≈ 51.6 µM); with A549, 8.84 µg/mL (≈ 27.9 µM); in the assay with Hepatitis B virus [2], 1.34 µM; in the assay with KB, 9.25 µg/mL (≈ 29.2 µM).

For the molecule `COc1c2c(c(C(C)(C)C3CO3)c3oc(=O)c(C(C)(C)C4CO4)cc13)OC(C)(C)C1OC21` (stereo not given), the EC50 result with Hepatitis B virus [1] is “Not Active”.

As for `CCC(C)(C)c1c2c(c(OC)c3ccc(=O)oc13)C(=O)CC(C)(C)O2`, the EC50 in assay [3] was 13 µg/mL (≈ 37.9 µM); in the assay with MCF7, more than 20 µg/mL; in the assay on A549 it was more than 20 µg/mL; in the assay on Hepatitis B virus [2], 5.35 µM; in the assay with KB, more than 20 µg/mL.

For the molecule `CC1(C)CC(=O)c2c(c(C(C)(C)C3CO3)c3oc(=O)ccc3c2O)O1` (stereo not given), the 50% effective concentration (EC50) was 2.71 µg/mL (≈ 7.87 µM) in assay [3]; more than 20 µg/mL in the assay with MCF7; more than 20 µg/mL in the assay on A549; more than 20 µg/mL with KB; “Not Active” in the assay with Hepatitis B virus [1].

Regarding `COc1c2c(cc3oc(=O)ccc13)OC(C)(C)C1OC21` (stereo not given), the EC50 entry in the assay with Hepatitis B virus [1] is given as “Not Active”.

Regarding `C=CC(C)(C)c1cc2c(O)c3c(c(C(C)(C)C=C)c2oc1=O)OC(C)(C)C=C3` [CLAUSARIN], the EC50 in assay [3] was 1.59 µg/mL (≈ 4.18 µM); with MCF7, 7.96 µg/mL (≈ 20.9 µM); with A549, 2.98 µg/mL (≈ 7.83 µM); in the assay on KB, 1.61 µg/mL (≈ 4.23 µM); in the assay on Hepatitis B virus [1], “Not Active”.

In the case of `CCC(C)(C)c1cc2c(OC)c3c(c(C(C)(C)CC)c2oc1=O)OC(C)(C)CC3`, the concentration giving a half-maximal response (EC50) in the assay with Hepatitis B virus [2] was 6.6 µM.

On to `C=CC(C)(C)c1cc2c(OC)c3c(c(C(C)(C)C=C)c2oc1=O)OC(C)(C)C1OC31` (stereo not given), for which the EC50 in assay [3] worked out at 6.12 µg/mL (≈ 14.9 µM); in the assay on MCF7 it was 11.4 µg/mL (≈ 27.8 µM); in the assay on A549, 11.8 µg/mL (≈ 28.7 µM); in the assay on Hepatitis B virus [2] it was 4.56 µM; with KB it was 6.5 µg/mL (≈ 15.8 µM).

In the case of `COc1c2c(cc3oc(=O)ccc13)OC(C)(C)C=C2` [XANTHOXYLETIN], the EC50 result in the assay on Hepatitis B virus [1] is “Not Active”.

Regarding `COc1c2c(c(C(C)(C)C3CO3)c3oc(=O)ccc13)OC(C)(C)CC2=O` (stereo not given), the EC50 entry in the assay with Hepatitis B virus [1] is “Not Active”.

For the molecule `CCC(C)(C)c1cc2c(O)c3c(c(C(C)(C)CC)c2oc1=O)OC(C)(C)CC3`, the EC50 is 7.73 µg/mL (≈ 20 µM) in assay [3]; 17.7 µg/mL (≈ 45.9 µM) with MCF7; 12.2 µg/mL (≈ 31.6 µM) in the assay on A549; 8.21 µg/mL (≈ 21.2 µM) in the assay with KB; “Not Active” in the assay on Hepatitis B virus [1].

Consider `C=CC(C)(C)c1c2c(c(OC)c3ccc(=O)oc13)C=CC(C)(C)O2` [DENTATIN], for which the EC50 in assay [3] was 14.7 µg/mL (≈ 45.1 µM); in the assay on MCF7, more than 20 µg/mL; with A549, more than 20 µg/mL; in the assay on Hepatitis B virus [2], 1.64 µM; with KB it was 13.3 µg/mL (≈ 40.6 µM).

For the molecule `C=CC(C)(C)c1c2c(c(O)c3ccc(=O)oc13)C=CC(C)(C)O2` [NORDENTATIN], the EC50 came to 9.96 µg/mL (≈ 31.9 µM) in assay [3]; 17.3 µg/mL (≈ 55.4 µM) in the assay with MCF7; 8.7 µg/mL (≈ 27.9 µM) in the assay with A549; 6.38 µM with Hepatitis B virus [2]; 9.63 µg/mL (≈ 30.8 µM) in the assay with KB.

Regarding `CCC(C)(C)c1c2c(c(O)c3ccc(=O)oc13)C(=O)CC(C)(C)O2`, the EC50 in assay [3] is 2.87 µg/mL (≈ 8.69 µM); with MCF7, more than 20 µg/mL; with A549, 19.7 µg/mL (≈ 59.7 µM); with Hepatitis B virus [2] it was 1.14 µM; in the assay with KB, 19.5 µg/mL (≈ 59 µM).

Turning to `C=CC(C)(C)c1c2c(c(OC)c3ccc(=O)oc13)C(=O)CC(C)(C)O2`, the concentration for a half-maximal effect (EC50) in the assay on Hepatitis B virus [2] came out at 11.2 µM.

Regarding `C=CC(C)(C)c1cc2c(OC)c3c(c(C(C)(C)C=C)c2oc1=O)OC(C)(C)C=C3`, the concentration giving a half-maximal response (EC50) entry with Hepatitis B virus [1] was “Not Active”.

In the case of `CCC(C)(C)c1c2c(c(OC)c3ccc(=O)oc13)CCC(C)(C)O2`, the EC50 in assay [3] is 10.2 µg/mL (≈ 30.7 µM); in the assay with MCF7 it was more than 20 µg/mL; in the assay on A549, more than 20 µg/mL; with Hepatitis B virus [2], 1.63 µM; with KB, 11.5 µg/mL (≈ 34.9 µM).

`COc1c2c(c(C(C)(C)C3CO3)c3oc(=O)ccc13)OC(C)(C)C1OC21` (stereo not given): the EC50 entry with Hepatitis B virus [1] is “Not Active”.
